In the test the target is T1, human TGR5 bile acid receptor (Homo sapiens, UniProt Q8TDU6).
T1 construct: The full length TGR5 gene is inserted into pCMV6 vector DNA (Origene); expressed in transfected cells
T1 sequence (Q8TDU6 1-330): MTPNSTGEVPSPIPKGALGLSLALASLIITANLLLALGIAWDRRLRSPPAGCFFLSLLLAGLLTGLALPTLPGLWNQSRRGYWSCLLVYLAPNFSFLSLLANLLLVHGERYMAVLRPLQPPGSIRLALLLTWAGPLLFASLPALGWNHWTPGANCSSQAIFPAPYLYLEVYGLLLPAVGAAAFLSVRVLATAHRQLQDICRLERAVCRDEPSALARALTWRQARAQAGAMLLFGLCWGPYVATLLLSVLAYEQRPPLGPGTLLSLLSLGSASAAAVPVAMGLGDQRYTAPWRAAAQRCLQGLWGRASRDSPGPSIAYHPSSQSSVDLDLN
The experiment in a line: TGR5 receptor activation, HTRF cAMP assay in 293/humanTGR5 cells. It counts as cell-based. As to conditions: activation of 293/humanTGR5 (HEK 293) cells measured by cAMP levels, 30 minutes at 37° C., relative to vehicle and 50 μM of Compound 7. How it is done:
Transformed E. coli stocks containing cDNA for the full length human TGR5 bile acid receptor (IMAGE clone #5221127) are obtained from Open Biosystems. Cultures are grown in LB broth, and cDNA is purified using Qiagen mini-prep columns. The full length TGR5 gene is inserted into pCMV6 vector DNA (Origene) by ligation followed by transformation in competent E. coli. Ampicillin-resistant clones are isolated and vector DNA containing the TGR5 gene is verified by DNA sequence analysis (Sequetech). The resulting plasmid is transfected into HEK 293 cells using FuGene 6 transfection reagent and the transfected cells are grown in the presence of 1 mg/mL G418 selection antibiotic. A number of individual G418 resistant colonies are isolated by using 150 μL cloning cylinders. The resulting 293/humanTGR5 expressing cell lines are then screened for responsiveness to the natural ligand lithocholic acid. A single clone is chosen for expansion and use for screening, this clone reproducibly responds to known receptor agonists for over 30 passages. The 293/humanTGR5 cells are maintained in DMEM/F12 media supplemented with 10% fetal bovine serum (Hyclone) and 15 mM HEPES buffer (Invitrogen). Cells are passaged twice weekly and maintained at densities to assure logarithmic growth. For use in cAMP assays, cells are trypsinzied, centrifuged, and resuspended in DMEM/F12 media supplemented with 0.5% FBA and 15 mM HEPES buffer. These cells are adjusted to a density which allows distribution of 25,000 cells in 20 μL of volume to each well of a half-area 96-well plate (Greiner Bio-One). 20 μL of test compounds diluted to a 2× concentration in DMEM/F12 media with 0.5% FBS are then added to the 96-well plates, and the plates are then incubated for 30 minutes at 37° C. in a 5% CO2 atmosphere. Levels of resulting cAMP for each treatment condition are then determined by use of an HTRF cAMP assay (CisBio) following the manufactures directions. The resulting data is analyzed using IDBX XLfit software and IC50 determinations are made for each test compound by comparing cAMP levels to vehicle controls (unstimulated) and TGR5 agonist-activated cells (50 μM of Compound 7, a reported TGR5 receptor agonist, J. Med. Chem., 2009, 52 (24), pp 7962-7965). Specificity for human TGR5 agonist activity is confirmed for compounds of interest by testing them against cell lines over expressing the mouse TGR5 receptor, human GPR119 receptor, and parent cell lines followed by measurement of resulting cAMP levels. Assay responsiveness is controlled for by measuring cAMP levels induced by 50 μM Forskolin in cells, a known adenylyl […] activator.
For orientation: In TR-FRET formats the signal depends on donor and acceptor labels being close together.

Usually EC50 stands for the midpoint of the concentration-response curve. A low value points to greater potency. `Fc1cccc(Cl)c1CSc1cnc2scc(-c3cccc(Cl)c3)n12` [Example 138, 5-[(2-chloro-6-fluoro-phenyl)methylsulfanyl]-3-(3-chlorophenyl)imidazo[2,1-b]thiazole] had an EC50 of 500 to 5000 nM.

The values are drawn from patent US20130085157A1, “ARYLSUBSTITUTED THIAZOLOTRIAZOLES AND THIAZOLOIMIDAZOLES” (priority 2011, published 2013).
